Source: patent US9695133B2, “Quinazolinone-based oncogenic-RAS-selective lethal compounds and their use” (THE TRUSTEES OF COLUMBIA UNIVERSITY IN THE CITY OF NEW YORK, priority 2012, dated 2017)
Where “and” joins values, the source holds several entries; their conditions need not be identical. Equal entries are not always repeated. Where two headings read alike, the source gives them in different places.

Experiment: Plasma pharmacokinetics after single IV and PO dose
Type: in vivo, male C57BL6/j mice
Conditions: for Plasma Concentration, individual mice / concentration at 0.5 hr / concentration at 1 hr / concentration at 2 hr / concentration at 4 hr / concentration at 8 hr / concentration at 12 hr / Vd: 20 mg/kg; for MRT inf: read-out: MRT(0-∞)
Protocol: Three mice in each group were used for blood collection at each time point. Blood samples (approximately 400 μL) were collected after euthanasia using carbon dioxide inhalation via cardiac puncture pre-dose and 30 minutes, 1 hour, 2 hours, 4 hours, 8 hours and 12 hours post-dose. Blood samples were placed into tubes containing sodium heparin and centrifuged at 8000 rpm for 6 minutes at 4° C. to separate plasma from the blood samples. Following centrifugation, the resulting plasma was transferred to clean tubes and stored frozen at −80° C. until bioanalysis by the Testing Facility.

[1] = male, C57BL6/j, mouse, plasma, IV 20 mg/kg
[2] = male, C57BL6/j, mouse, plasma, PO 20 mg/kg

Plasma Concentration, individual mice (IV 20 mg/kg, 2 hr): 1016.04 ng/mL and 1054.66 ng/mL
Plasma Concentration, individual mice (IV 20 mg/kg, 8 hr): 105.57 ng/mL and 148.67 ng/mL
Plasma Concentration, individual mice (PO 20 mg/kg, 1 hr): 1635.86 ng/mL and 1288.53 ng/mL
Plasma Concentration, individual mice (PO 20 mg/kg, 4 hr): 642.39 ng/mL and 669.76 ng/mL
Plasma Concentration, individual mice (PO 20 mg/kg, 8 hr): 23.99 ng/mL and 28.91 ng/mL
Plasma Concentration, individual mice (PO 20 mg/kg, 12 hr): 21.10 ng/mL and 15.06 ng/mL
concentration at 0.5 hr (male, C57BL6/j, mouse, plasma, iv, IV 20 mg/kg, 0.5 hr): 3220 ng/mL
concentration at 1 hr (male, C57BL6/j, mouse, plasma, iv, IV 20 mg/kg, 1 hr, read-out: Plasma Concentration, Mean): 1240 ng/mL
concentration at 2 hr (male, C57BL6/j, mouse, plasma, iv, IV 20 mg/kg, 2 hr, read-out: Plasma Concentration, Mean): 997 ng/mL
concentration at 2 hr (male, C57BL6/j, mouse, plasma, iv, IV 20 mg/kg, 2 hr, read-out: Plasma Concentration, individual mice): 920 ng/mL
concentration at 4 hr (male, C57BL6/j, mouse, plasma, iv, IV 20 mg/kg, 4 hr, read-out: Plasma Concentration, Mean): 412 ng/mL
concentration at 8 hr (male, C57BL6/j, mouse, plasma, iv, IV 20 mg/kg, 8 hr, read-out: Plasma Concentration, Mean): 134 ng/mL
concentration at 8 hr (male, C57BL6/j, mouse, plasma, iv, IV 20 mg/kg, 8 hr, read-out: Plasma Concentration, individual mice): 147 ng/mL
concentration at 12 hr (male, C57BL6/j, mouse, plasma, iv, IV 20 mg/kg, 12 hr, read-out: Plasma Concentration, Mean): 96.8 ng/mL
Vd (male, C57BL6/j, mouse, plasma, iv, plasma, IV 20 mg/kg, read-out: Vz): 9.63 L/kg
Vd (male, C57BL6/j, mouse, plasma, iv, plasma, IV 20 mg/kg, read-out: volume of distribution at terminal phase): 9.63 L/kg
concentration at 0.5 hr (male, C57BL6/j, mouse, plasma, po, PO 20 mg/kg, 0.5 hr): 286 ng/mL
concentration at 1 hr (male, C57BL6/j, mouse, plasma, po, PO 20 mg/kg, 1 hr, read-out: Plasma Concentration, Mean): 1390 ng/mL
concentration at 1 hr (male, C57BL6/j, mouse, plasma, po, PO 20 mg/kg, 1 hr, read-out: Plasma Concentration, individual mice): 1240 ng/mL
concentration at 2 hr (male, C57BL6/j, mouse, plasma, po, PO 20 mg/kg, 2 hr, read-out: Plasma Concentration, Mean): 935 ng/mL
concentration at 4 hr (male, C57BL6/j, mouse, plasma, po, PO 20 mg/kg, 4 hr, read-out: Plasma Concentration, Mean): 696 ng/mL
concentration at 4 hr (male, C57BL6/j, mouse, plasma, po, PO 20 mg/kg, 4 hr, read-out: Plasma Concentration, individual mice): 777 ng/mL
concentration at 8 hr (male, C57BL6/j, mouse, plasma, po, PO 20 mg/kg, 8 hr, read-out: Plasma Concentration, Mean): 24 ng/mL
concentration at 8 hr (male, C57BL6/j, mouse, plasma, po, PO 20 mg/kg, 8 hr, read-out: Plasma Concentration, individual mice): 19.1 ng/mL
concentration at 12 hr (male, C57BL6/j, mouse, plasma, po, PO 20 mg/kg, 12 hr, read-out: Plasma Concentration, Mean): 18.8 ng/mL
concentration at 12 hr (male, C57BL6/j, mouse, plasma, po, PO 20 mg/kg, 12 hr, read-out: Plasma Concentration, individual mice): 20.2 ng/mL
bioavailability (male, C57BL6/j, mouse, plasma, PO 20 mg/kg vs IV 20 mg/kg, read-out: F (bioavailability)): 57.1%
AUC(0-inf) [1]: 8490 ng·h/mL
AUC(0-t) [1]: 8100 ng·h/mL
Cmax [1]: 3220 ng/mL
Tmax [1]: 0.5 h
half-life [1]: 2.84 h
MRT inf [1]: 2.67 h
clearance (male, C57BL6/j, mouse, plasma, IV 20 mg/kg, read-out: systemic clearance (converted)): 39.2 mL/min/kg
AUC(0-inf) [2]: 4850 ng·h/mL
AUC(0-t) [2]: 4810 ng·h/mL
Cmax [2]: 1390 ng/mL
Tmax [2]: 1 h
half-life [2]: 1.57 h
MRT inf [2]: 2.91 h
CLz (plasma, IV 20 mg/kg): 39.2413 mL/min/kg
Compound: CC(C)Oc1ccc(CN2CCNCC2)cc1-n1c(CN2CCN(C(=O)COc3ccc(Cl)cc3)CC2)nc2ccccc2c1=O [PE, 2-((4-(2-(4-chlorophenoxy)ethanoyl)piperazin-1-yl)methyl)-3-(2-isopropoxy-5-(piperazin-1-ylmethyl)phenyl)quinazolin-4(3H)-one]
Plasma Concentration, individual mice (IV 20 mg/kg, 0.5 hr): 4625.87 ng/mL and 2218.81 ng/mL and 2826.92 ng/mL
Plasma Concentration, individual mice (IV 20 mg/kg, 1 hr): 1548.38 ng/mL and 657.50 ng/mL and 1509.78 ng/mL
Plasma Concentration, individual mice (IV 20 mg/kg, 4 hr): 200.14 ng/mL and 657.19 ng/mL and 379.24 ng/mL
Plasma Concentration, individual mice (IV 20 mg/kg, 12 hr): 34.53 ng/mL and 159.78 ng/mL and 96.08 ng/mL
Plasma Concentration, individual mice (PO 20 mg/kg, 0.5 hr): 365.89 ng/mL and 403.60 ng/mL and 87.63 ng/mL
Plasma Concentration, individual mice (PO 20 mg/kg, 2 hr): 1260.55 ng/mL and 527.50 ng/mL and 1016.24 ng/mL
